Inconclusive results and toxic doses are left out. Cut-off read from the data, not from the text of the source: active = T/C of 150% or more; inactive = T/C below 125%.
Tested on: L1210 leukemia ip in BDF1 mice, survival T/C
Test: NCI In Vivo Anticancer Drug Screen. Data for tumor model L1210 Leukemia (intraperitoneal) in B6D2F1 (BDF1) mice
Conditions: endpoint: mean survival time, higher = longer survival
How it was run: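 Tumor cells were implanted, animals were treated, and survival was followed. The result divides the treated measurement by the vehicle-control measurement.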

[1] = dose: 100.0 mg/kg/injection, schedule: Q01DX001 (ip), vehicle: carboxymethylcellulose (CMC)
[2] = dose: 200.0 mg/kg/injection, schedule: Q01DX001 (ip), vehicle: carboxymethylcellulose (CMC)
[3] = dose: 400.0 mg/kg/injection, schedule: Q01DX001 (ip), vehicle: carboxymethylcellulose (CMC)
[4] = dose: 100.0 mg/kg/injection, schedule: Q01DX001 (ip), vehicle: Klucel (hydroxypropylcellulose) (HPC)
[5] = dose: 200.0 mg/kg/injection, schedule: Q01DX001 (ip), vehicle: Klucel (hydroxypropylcellulose) (HPC)
[6] = dose: 400.0 mg/kg/injection, schedule: Q01DX001 (ip), vehicle: Klucel (hydroxypropylcellulose) (HPC)
[7] = dose: 100.0 mg/kg/injection, schedule: Q04DX002 (ip), vehicle: Klucel (hydroxypropylcellulose) (HPC)
[8] = dose: 200.0 mg/kg/injection, schedule: Q04DX002 (ip), vehicle: Klucel (hydroxypropylcellulose) (HPC)
[9] = dose: 400.0 mg/kg/injection, schedule: Q04DX002 (ip), vehicle: Klucel (hydroxypropylcellulose) (HPC)
[10] = dose: 100.0 mg/kg/injection, schedule: Q01DX009 (ip), vehicle: saline
[11] = dose: 100.0 mg/kg/injection, schedule: Q01DX009 (ip), vehicle: Klucel (hydroxypropylcellulose) (HPC)
[12] = dose: 200.0 mg/kg/injection, schedule: Q01DX009 (ip), vehicle: Klucel (hydroxypropylcellulose) (HPC)
[13] = dose: 400.0 mg/kg/injection, schedule: Q01DX009 (ip), vehicle: Klucel (hydroxypropylcellulose) (HPC)
[14] = dose: 100.0 mg/kg/injection, schedule: Q04DX003 (ip), vehicle: Klucel (hydroxypropylcellulose) (HPC)
[15] = dose: 200.0 mg/kg/injection, schedule: Q04DX003 (ip), vehicle: Klucel (hydroxypropylcellulose) (HPC)
[16] = dose: 400.0 mg/kg/injection, schedule: Q04DX003 (ip), vehicle: Klucel (hydroxypropylcellulose) (HPC)
[17] = dose: 100.0 mg/kg/injection, schedule: Q01DX009 (ip), vehicle: saline with Tween-80
[18] = dose: 100.0 mg/kg/injection, schedule: Q01DX001 (ip), vehicle: saline
[19] = dose: 200.0 mg/kg/injection, schedule: Q01DX001 (ip), vehicle: saline
[20] = dose: 400.0 mg/kg/injection, schedule: Q01DX001 (ip), vehicle: saline

Measured: T/C

O=[N+]([O-])c1ccccc1N=Cc1ccccc1O.[Co]
inactive: dose: 100.0 mg/kg/injection, schedule: Q01DX001 (ip), vehicle: other 98 % of control | dose: 200.0 mg/kg/injection, schedule: Q01DX001 (ip), vehicle: other 104 % of control

O=[N+]([O-])c1cccc2c1C1c3ccccc3C2c2ccccc21
inactive: dose: 50.0 mg/kg/injection, schedule: Q01DX001 (ip), vehicle: carboxymethylcellulose (CMC) 93 % of control | [1] 93 % of control | [2] 96 % of control | [3] 96 % of control

O=C(c1ccccc1)C1CCC(C(=O)c2ccccc2)C1=O (stereo not drawn)
inactive: [1] 98 % of control | [2] 98 % of control | [3] 98 % of control

CC(CCl)=C(B1OC(C)(C)C(C)(C)O1)B1OC(C)(C)C(C)(C)O1
inactive: [4] 110 % of control | [5] 94 % of control | [6] 92 % of control

NC(C(=O)O)C(C(=O)O)c1ccccc1 (stereo not drawn)
inactive: [7] 101 % of control | [8] 101 % of control | [9] 93 % of control

CNc1ncnc2c1ncn2C1CC(CO)C(O)C1O (stereo not drawn)
inactive: [10] 98 % of control

CSc1ccc(NC(=O)N(Cc2ccccc2)c2ccccc2)cc1
inactive: [11] 106 % of control | [12] 101 % of control | [13] 95 % of control

O=C(NC(=O)c1ccc([N+](=O)[O-])cc1)Nc1ccccc1
inactive: dose: 264.0 mg/kg/injection, schedule: Q01DX001 (ip), vehicle: carboxymethylcellulose (CMC) 92 % of control | [3] 96 % of control | dose: 600.0 mg/kg/injection, schedule: Q01DX001 (ip), vehicle: carboxymethylcellulose (CMC) 88 % of control

CCOC(=O)C(NC(=O)CCl)C(=O)OCC
inactive: dose: 50.0 mg/kg/injection, schedule: Q01DX009 (ip), vehicle: Klucel (hydroxypropylcellulose) (HPC) 91 % of control | [11] 94 % of control | [14] 100 % of control | [12] 91 % of control | [15] 91 % of control

O=P1(CCc2ccccc2)CC(Br)C(Br)C1 (stereo not drawn)
inactive: [14] 101 % of control | [15] 106 % of control | [16] 98 % of control

COc1ccc([N+](=O)[O-])cc1NC(=O)Nc1ccc(C(=O)OCC(C)C)cc1
inactive: [11] 100 % of control | [12] 100 % of control | [13] 95 % of control

c1coc(CNc2cc(NCc3ccco3)ncn2)c1
inactive: [11] 98 % of control | [12] 95 % of control

CS(=O)(=O)n1c(C(O)c2ccccc2)nc2ccccc21 (stereo not drawn)
inactive: [1] 100 % of control | [2] 94 % of control | [3] 89 % of control

Cc1cc(C)cc(OC(=O)/C=C/C(=O)Oc2cc(C)cc(C)c2)c1
inactive: [17] 105 % of control | dose: 200.0 mg/kg/injection, schedule: Q01DX009 (ip), vehicle: saline with Tween-80 100 % of control | dose: 400.0 mg/kg/injection, schedule: Q01DX009 (ip), vehicle: saline with Tween-80 102 % of control

C(=N\Nc1nc2ccccc2o1)/c1ccncc1
inactive: [11] 95 % of control | [12] 104 % of control | [13] 104 % of control

O=C(Oc1ccc(Cl)cc1)c1ccc(C(=O)Oc2ccc(Cl)cc2)cc1
inactive: dose: 75.0 mg/kg/injection, schedule: Q01DX009 (ip), vehicle: saline sonified 93 % of control | [14] 100 % of control | dose: 150.0 mg/kg/injection, schedule: Q01DX009 (ip), vehicle: saline sonified 91 % of control | [15] 97 % of control | dose: 300.0 mg/kg/injection, schedule: Q01DX009 (ip), vehicle: saline sonified 87 % of control | [16] 92 % of control

CCCNC
inactive: dose: 50.0 mg/kg/injection, schedule: Q01DX009 (ip), vehicle: saline 90 % of control | [10] 100 % of control | dose: 100.0 mg/kg/injection, schedule: Q04DX003 (ip), vehicle: saline 96 % of control | dose: 200.0 mg/kg/injection, schedule: Q04DX003 (ip), vehicle: saline 98 % of control

O=c1[nH]c2c(c(=O)[nH]1)CCCCC2
inactive: [7] 95 % of control | [8] 89 % of control | [9] 92 % of control

NCCSCCN
inactive: [11] 104 % of control | [12] 100 % of control

CCCCCCC1C/C(=C/N(C)C)C(=O)O1 (stereo not drawn)
inactive: [7] 90 % of control | [8] 90 % of control | [9] 93 % of control

C=C(C)CN=C=S
inactive: dose: 25.0 mg/kg/injection, schedule: Q01DX009 (ip), vehicle: saline with Tween-80 100 % of control | dose: 25.0 mg/kg/injection, schedule: Q04DX003 (ip), vehicle: saline with Tween-80 101 % of control | dose: 50.0 mg/kg/injection, schedule: Q01DX009 (ip), vehicle: saline with Tween-80 98 % of control | dose: 50.0 mg/kg/injection, schedule: Q04DX003 (ip), vehicle: saline with Tween-80 109 % of control | [17] 104 % of control | dose: 100.0 mg/kg/injection, schedule: Q04DX003 (ip), vehicle: saline with Tween-80 103 % of control

N=Nc1c2ccccc2c2nc3c(N)[nH]nc(N)c3nc12
inactive: [7] 107 % of control | [8] 103 % of control | [9] 100 % of control

C[n+]1c(O)c(C(=O)CCl)n2cc([N+](=O)[O-])ccc21
inactive: [18] 100 % of control | [19] 92 % of control | [20] 101 % of control

CCCCCCOC(=O)Nc1ccc(S(=O)(=O)N(C)C)cc1
inactive: [18] 103 % of control | [19] 108 % of control | [20] 102 % of control

CCCCCCCCOC(=O)CCC(N)C(=O)O (stereo not drawn)
inactive: [4] 107 % of control | [11] 93 % of control | [5] 102 % of control | [12] 97 % of control | [6] 98 % of control | [13] 97 % of control

COc1cc(C(=O)NNS(=O)(=O)c2ccccc2)cc(OCc2ccccc2)c1OC
inactive: dose: 100.0 mg/kg/injection, schedule: Q04DX002 (ip), vehicle: saline 97 % of control | dose: 200.0 mg/kg/injection, schedule: Q04DX002 (ip), vehicle: saline 97 % of control | dose: 400.0 mg/kg/injection, schedule: Q04DX002 (ip), vehicle: saline 95 % of control

O=C1NC(=O)C(c2ccccc2)(C2CC2)N1 (stereo not drawn)
inactive: dose: 50.0 mg/kg/injection, schedule: Q04DX003 (ip), vehicle: Klucel (hydroxypropylcellulose) (HPC) 107 % of control | [18] 93 % of control | [14] 95 % of control | [19] 93 % of control | [15] 101 % of control | [20] 98 % of control

Cc1cc(=O)[nH]c2nc3ccccc3n12
inactive: [4] 108 % of control | [14] 96 % of control | [5] 95 % of control | [15] 96 % of control | [6] 111 % of control | [16] 104 % of control

CC(C)OC(=O)c1cccc2c1-c1ccccc1C2=O
inactive: [18] 92 % of control | [19] 92 % of control | [20] 95 % of control

NN1CCCC1C(=O)O (stereo not drawn)
inactive: dose: 75.0 mg/kg/injection, schedule: Q01DX001 (ip), vehicle: saline 97 % of control | dose: 150.0 mg/kg/injection, schedule: Q01DX001 (ip), vehicle: saline 92 % of control
